Test results from article PMC10720285 (ACS Omega, 2023).

Assays:
Format in all cases: cell-based
MCF7 = test: MTT antiproliferative assay, MCF7; details: Homo sapiens, MCF7, 72 h, read-out: IC50 values MCF7
A549 = test: MTT antiproliferative assay, A549; details: Homo sapiens, A549, 72 h, read-out: IC50 values A549
MCF-10A = test: MTT cytotoxicity assay, noncancerous MCF-10A; details: Homo sapiens, 72 h, read-out: IC50 values MCF-10A
HepG2 = test: MTT antiproliferative assay, HepG2; details: Homo sapiens, HepG2, 72 h, read-out: IC50 values HepG2

IC50 (MCF7)	IC50 (A549)	IC50 (HepG2)	Structure (SMILES)	IC50 (MCF-10A)
15.2 ± 1.65 µM	14.3 ± 1.96 µM	13.3 ± 1.96 µM	N=c1c2c(nc(-c3ccccc3)n1N)OC1=C(C(=O)CCC1)C2c1cccs1 (centres unmarked) [Compound 19, 3-Amino-4-imino-2-phenyl-5-(thiophen-2-yl)-3,4,5,7,8,9-hexahydro-6H-chromeno[2,3-d]pyrimidin-6-one]	60.5 ± 1.94 µM
29 ± 2.38 µM	24.3 ± 3.88 µM	25.3 ± 1.34 µM	CC(=O)N(C(C)=O)C1=C(C#N)C(c2cccs2)C2=C(CCCC2=O)O1 (centres unmarked) [Compound 17, N-Acetyl-N-(3-cyano-5-oxo-4-(thiophen-2-yl)-5,6,7,8-tetrahydro-4H-chromen-2-yl)acetamide]	
1.68 ± 0.11 µM	2.22 ± 0.22 µM	2.71 ± 0.12 µM	COc1cccc2c1C(=O)c1c(O)c3c(c(O)c1C2=O)C[C@@](O)(C(=O)CO)C[C@@H]3O[C@H]1C[C@H](N)[C@H](O)[C@H](C)O1 [doxorubicin, reference compound]	87.3 ± 1.47 µM
60.1 ± 3.45 µM	50.7 ± 3.23 µM	50.5 ± 3.16 µM	N#CCc1nc(N)c2c(n1)OC1=C(C(=O)CCC1)C2c1cccs1 (centres unmarked) [Compound 11, 2-(4-Amino-6-oxo-5-(thiophen-2-yl)-6,7,8,9-tetrahydro-5H-chromeno[2,3-d]pyrimidin-2-yl)acetonitrile]	
19.3 ± 3.37 µM	19 ± 3.45 µM	19.3 ± 2.06 µM	O=C1CCCC2=C1C(c1cccs1)C1=C(NC(=O)N3CCN=C13)O2 (centres unmarked) [Compound 15, 12-(Thiophen-2-yl)-2,6,8,9,10,12-hexahydro-5H-chromeno[3,2-e]imidazo[1,2-c]pyrimidine-5,11(3H)-dione]	52.3 ± 2.18 µM
18.1 ± 2.05 µM	19.2 ± 3.88 µM	19.3 ± 2.07 µM	NC(=S)Cc1nc(N)c2c(n1)OC1=C(C(=O)CCC1)C2c1cccs1 (centres unmarked) [Compound 13, 2-(4-Amino-6-oxo-5-(thiophen-2-yl)-6,7,8,9-tetrahydro-5H-chromeno[2,3-d]pyrimidin-2-yl)ethanethioamide]	51.6 ± 1.98 µM
5.6 ± 1.12 µM	7.28 ± 1.34 µM	6.26 ± 0.32 µM	Nc1c2c(nc(=S)n1-c1ccccc1)OC1=C(C(=O)CCC1)C2c1cccs1 (centres unmarked) [Compound 7, 4-Amino-3-phenyl-5-(thiophen-2-yl)-2-thioxo-2,3,5,7,8,9-hexahydro-6H-chromeno[2,3-d]pyrimidin-6-one]	78.5 ± 2.05 µM
39.3 ± 3.12 µM	40.4 ± 3.15 µM	37.2 ± 1.45 µM	CCOC(=O)NC1=C(C#N)C(c2cccs2)C2=C(CCCC2=O)O1 (centres unmarked) [Compound 14, Ethyl (3-Cyano-5-oxo-4-(thiophen-2-yl)-5,6,7,8-tetrahydro-4H-chromen-2-yl)carbamate]	

The remaining lines, values behind:

Structure (SMILES)	IC50 (MCF7)	IC50 (A549)	IC50 (HepG2)	IC50 (MCF-10A)
Nc1nc(=O)[nH]c2c1C(c1cccs1)C1=C(CCCC1=O)O2 (centres unmarked) [Compound 4a, 4-Amino-5-(thiophen-2-yl)-5,7,8,9-tetrahydro-2H-chromeno[2,3-d]pyrimidine-2,6(1H)-dione]	14.3 ± 2.05 µM	14.9 ± 3.12 µM	13.7 ± 3.81 µM	60.1 ± 2.31 µM
CCO/C=N/C1=C(C#N)C(c2cccs2)C2=C(CCCC2=O)O1 (centres unmarked) [Compound 2, Ethyl (E)-N-(3-Cyano-5-oxo-4-(thiophen-2-yl)-5,6,7,8-tetrahydro-4H-chromen-2-yl)formimidate]	29.4 ± 2.35 µM	29.9 ± 3.05 µM	27.3 ± 3.87 µM	
N#CC1=C(N)OC2=C(C(=O)CCC2)C1c1cccs1 (centres unmarked) [Compound 1, 2-Amino-5-oxo-4-(thiophen-2-yl)-5,6,7,8-tetrahydro-4H-chromene-3-carbonitrile]	39.8 ± 3.35 µM	36.3 ± 3.37 µM	33.9 ± 3.34 µM	
Nc1nc(=S)[nH]c2c1C(c1cccs1)C1=C(CCCC1=O)O2 (centres unmarked) [Compound 4b, 4-Amino-5-(thiophen-2-yl)-2-thioxo-1,2,5,7,8,9-hexahydro-6H-chromeno[2,3-d]pyrimidin-6-one]	18.8 ± 3.19 µM	17.1 ± 3.17 µM	17.8 ± 2.04 µM	58.1 ± 2.34 µM
N=c1c2c(ncn1N)OC1=C(C(=O)CCC1)C2c1cccs1 (centres unmarked) [Compound 3, 3-Amino-4-imino-5-(thiophen-2-yl)-3,4,5,7,8,9-hexahydro-6H-chromeno[2,3-d]pyrimidin-6-one]	1.61 ± 0.12 µM	1.87 ± 0.32 µM	2.02 ± 0.15 µM	77.3 ± 3.22 µM
